Literature values, collected in patent US10827752B2, “Disinfectant composition” (priority 2010, dated 2020).
Entries after “also recorded” stand apart in the source; their conditions may differ.

Test system: spores
Settings: approximately 2500 ppm of peracetic acid

Compound: CC(=O)OO [peracetic acid]
- sporicidal action: excellent sporicidal action; also recorded: excellent sporicidal results
